For one test, the target named is T1, type V adenylyl cyclase (Homo sapiens, UniProt O95622).
T1 construct: from tissue; host or cells: heart (cardiomyocyte) membrane preparations from transgenic mice overproducing type V adenylyl cyclase
In words: Adenylyl cyclase membrane assay, type V (cAMP ELISA). The test is classed as biochemical, mouse. The following applies: cardiomyocyte membrane preparations from transgenic mice; forskolin 50 μM. How it is done:
(§1) Compounds were assayed for their ability to attenuate cyclic AMP (cAMP) production in cardiomyocyte membrane preparations isolated from transgenic mice. Transgenic mice were separately bred to overproduce type V adenylyl cyclase, type VI adenylyl cyclase and type II adenylyl cyclase. cAMP levels were determined using a Cyclic AMP Competitive ELISA kit purchased from ThermoFischer Scientific (Cat# EMSCAMPL).
(§2) Buffer A (pH 8) was prepared comprising final concentrations of the following: 50 mM Tris, 1 mM EGTA, 1 mM EDTA, 1 mM DTT, 100 mM sucrose, 20 μg/mL TPCK (protease inhibitor), 20 μg/mL TLCK (protease inhibitor), 1 mM PMSF (protease inhibitor), 10 μg/mL leupeptin (protease inhibitor) and 10 μg/mL aprotinin (protease inhibitor).
(§3) Buffer B (pH 8) was prepared comprising final concentrations of the following: 50 mM Tris, 1 mM EDTA, 100 mM sucrose, 0.2 mM PMSF (protease inhibitor), 2 μg/mL leupeptin (protease inhibitor) and 2 μg/mL aprotinin (protease inhibitor).
Hearts were surgically excised from transgenic mice. Each isolated heart was treated with 3-4 mL of buffer A and cooled to 0 deg C. for 5 minutes. Treated hearts were homogenized for 10 seconds using a Polytron homogenizer cooled to 0 deg C. and set to speed 6. Homogenized hearts were centrifuged at 500×g at 4 deg C. for 10 minutes. Supernatants were transferred to ultracentrifuge tubes and centrifuged at 35,000 rpm at 4 deg C. for 40 minutes. Isolated pellets were combined with buffer B (500 μL) and sonicated to a suspension. Protein concentration was determined using a commercial Bradford assay kit. Membrane preparations were stored at −80 deg C.
Buffer R (pH 8) was prepared comprising final concentrations in water of the following: HEPES (20 mM), magnesium chloride (5 mM), EDTA (0.5 mM), ATP (0.1 mM), phospho creatinine (1 mM), creatinine phosphokinase (8 units/mL), IBMX (200 μM), forskolin (50 μM) or control (DMSO in water).
Inhibitor solutions were prepared by dilution of stock solutions of inhibitors (10 mM in DMSO) to a final concentration of 100 μM in water. Serial dilutions with water were subsequently made in order to determine IC50 values.
Reaction mixtures were prepared comprising buffer R (10 μL), inhibitor or control (10 μL), and water (75 μL).
A reaction mixture was pre-incubated at 30 deg C. for 5 minutes. A membrane preparation (e.g. 5 μL for type V Adenylyl Cyclase comprising 2 μg of membrane protein per 5 μL of preparation) was added and the mixture was incubated at 30 deg C. for 15 minutes. The reaction was stopped by addition of 0.1 M hydrochloric acid (100 μL) and cooled to 0 deg C. The resulting mixture was incubated at 0 deg C. for 60 minutes. The cAMP concentration of the supernatant was measured using a Cyclic AMP Competitive ELISA kit purchased from ThermoFischer Scientific.
A general note: An ELISA detects its analyte on a solid surface through an enzyme-linked reagent.

The target in the next test is T2, type VI adenylyl cyclase (Homo sapiens, UniProt O43306).
T2 construct: from tissue; host or cells: heart (cardiomyocyte) membrane preparations from transgenic mice overproducing type VI adenylyl cyclase
In words: Adenylyl cyclase membrane assay, type VI (cAMP ELISA). The test is classed as biochemical, mouse. The following applies: cardiomyocyte membrane preparations from transgenic mice; forskolin 50 μM. As for the experimental part: as §1, §2, §3
Hearts were surgically excised from transgenic mice. Each isolated heart was treated with 3-4 mL of buffer A and cooled to 0 deg C. for 5 minutes. Treated hearts were homogenized for 10 seconds using a Polytron homogenizer cooled to 0 deg C. and set to speed 6. Homogenized hearts were centrifuged at 500×g at 4 deg C. for 10 minutes. Supernatants were transferred to ultracentrifuge tubes and centrifuged at 35,000 rpm at 4 deg C. for 40 minutes. Isolated pellets were combined with buffer B (500 μL) and sonicated to a suspension. Protein concentration was determined using a commercial Bradford assay kit. Membrane preparations were stored at −80 deg C. […]
(§4) A reaction mixture was pre-incubated at 30 deg C. for 5 minutes. […] The cAMP concentration of the supernatant was measured using a Cyclic AMP Competitive ELISA kit purchased from ThermoFischer Scientific.

In test [1] the test system is H9c2(2-1) myoblast cell line. Description: Adenylyl cyclase cell-based assay, forskolin-stimulated cAMP. The following applies: Rattus norvegicus; H9c2 cells, forskolin 50 μM. How it is done:
(§5) H9c2(2-1) myoblast cell line was obtained from ATCC (CRL-1446). Cells (10^5 cells/mL) were seeded in 24-well plates at 5×10^4 cells per well. Cells were allowed to attach over 24 hours. The cells were then washed with PBS. Serum-free DMEM supplemented with 20 mM HEPES and 0.5 mM IBMX was added and the cells were incubated at 37 deg C. for 20 minutes. An Adenylyl Cyclase inhibitor (0.001-100 μM in DMSO/water with DMSO concentration <1%) was added and the mixture was incubated at 37 deg C. for 10 minutes. Forskolin (50 μM in DMSO/water with DMSO concentration <1%) was added and the mixture was incubated at 37 deg C. for 10 minutes. As an alternative to forskolin, isoproterenol (5 mM in DMSO/water with DMSO concentration <1%) was added and the mixture was incubated at 37 deg C. for 15 minutes. The media was removed and the cells were lysed by addition of 0.1 M hydrochloric acid (200 μL) 0 deg C. Lysed mixtures were maintained at 0 deg C. for 10-20 minutes and the plates were then centrifuged at 3,000×g for 5 minutes. cAMP levels in the supernatant were measured using the ThermoScientific cAMP competitive ELISA (EMSCAMPL) kit with samples acetylated in glass or polypropylene tubes.

For test [2], the system named is H9c2(2-1) myoblast cell line. In words: Adenylyl cyclase cell-based assay, isoproterenol-stimulated cAMP. The following applies: Rattus norvegicus; H9c2 cells, isoproterenol 5 mM. How it is done:
as §5

Test [3] concerns Mouse Ischemia and Reperfusion Model. Description: Mouse ischemia and reperfusion model, infarct size. The following applies: mice; 30 min CAO, 24 hr CAR; i.v. infusion 0.06 mg/kg delivered at CAR; vehicle 33%. The test is classed as in vivo. How it is done: 3-4-month-old male CS7BL/6 mice purchased from Jack-son Laboratory were anesthetized by an injection of 2% 2,2,2-tribromomethanol ([…] i.p.; Aldrich Chemical, St. Louis, Mo.). The mice were then orally intubated and mechanically ventilated. The heart was accessed via a thoracotomy at the fourth intercostals space and 7-0 silk suture passed under the left anterior descending coronary artery (LAD) at the point where it emerged from under the left atrial flap. Myocardial ischemia was achieved by occluding the LAD against a 22-gauge J-shaped stainless-steel probe and verified by visually noting the regional akinesis and blanching of the left ventricle. The chest was closed in layers, with the long end of the probe remaining outside the chest wall, allowing the animals to be removed from the ventilator. After 30 min. of ischemia, reperfusion was initiated by carefully pulling the probe out from the ligature and then removing it from the chest cavity. Following the surgical procedure, the mice were allowed to recover on a warmed surface, with supplemental oxygen delivered from a nose cone. I/R were verified by three lead electrocardiograms, which were obtained preoperatively, at the end of the ischemic interval and immediately after the initiation of reperfusion. Mice fully recovered from the surgical procedure were returned to standard animal housing conditions. […]

Another test has as its target T3, type II adenylyl cyclase (Homo sapiens, UniProt Q08462).
T3 construct: from tissue; host or cells: heart (cardiomyocyte) membrane preparations from transgenic mice overproducing type II adenylyl cyclase
Description: Adenylyl cyclase membrane assay, type II (cAMP ELISA). In kind it is biochemical, mouse. The following applies: cardiomyocyte membrane preparations from transgenic mice; forskolin 50 μM. As for the experimental part: as §1, §2, §3
Hearts were surgically excised from transgenic mice. Each isolated heart was treated with 3-4 mL of buffer A and cooled to 0 deg C. for 5 minutes. […] Protein concentration was determined using a commercial Bradford assay kit. […]
as §4

Molecules are shown by their SMILES. Where only a bound is given, the exact number is not on record here.

T1 sequence (O95622 whole entry): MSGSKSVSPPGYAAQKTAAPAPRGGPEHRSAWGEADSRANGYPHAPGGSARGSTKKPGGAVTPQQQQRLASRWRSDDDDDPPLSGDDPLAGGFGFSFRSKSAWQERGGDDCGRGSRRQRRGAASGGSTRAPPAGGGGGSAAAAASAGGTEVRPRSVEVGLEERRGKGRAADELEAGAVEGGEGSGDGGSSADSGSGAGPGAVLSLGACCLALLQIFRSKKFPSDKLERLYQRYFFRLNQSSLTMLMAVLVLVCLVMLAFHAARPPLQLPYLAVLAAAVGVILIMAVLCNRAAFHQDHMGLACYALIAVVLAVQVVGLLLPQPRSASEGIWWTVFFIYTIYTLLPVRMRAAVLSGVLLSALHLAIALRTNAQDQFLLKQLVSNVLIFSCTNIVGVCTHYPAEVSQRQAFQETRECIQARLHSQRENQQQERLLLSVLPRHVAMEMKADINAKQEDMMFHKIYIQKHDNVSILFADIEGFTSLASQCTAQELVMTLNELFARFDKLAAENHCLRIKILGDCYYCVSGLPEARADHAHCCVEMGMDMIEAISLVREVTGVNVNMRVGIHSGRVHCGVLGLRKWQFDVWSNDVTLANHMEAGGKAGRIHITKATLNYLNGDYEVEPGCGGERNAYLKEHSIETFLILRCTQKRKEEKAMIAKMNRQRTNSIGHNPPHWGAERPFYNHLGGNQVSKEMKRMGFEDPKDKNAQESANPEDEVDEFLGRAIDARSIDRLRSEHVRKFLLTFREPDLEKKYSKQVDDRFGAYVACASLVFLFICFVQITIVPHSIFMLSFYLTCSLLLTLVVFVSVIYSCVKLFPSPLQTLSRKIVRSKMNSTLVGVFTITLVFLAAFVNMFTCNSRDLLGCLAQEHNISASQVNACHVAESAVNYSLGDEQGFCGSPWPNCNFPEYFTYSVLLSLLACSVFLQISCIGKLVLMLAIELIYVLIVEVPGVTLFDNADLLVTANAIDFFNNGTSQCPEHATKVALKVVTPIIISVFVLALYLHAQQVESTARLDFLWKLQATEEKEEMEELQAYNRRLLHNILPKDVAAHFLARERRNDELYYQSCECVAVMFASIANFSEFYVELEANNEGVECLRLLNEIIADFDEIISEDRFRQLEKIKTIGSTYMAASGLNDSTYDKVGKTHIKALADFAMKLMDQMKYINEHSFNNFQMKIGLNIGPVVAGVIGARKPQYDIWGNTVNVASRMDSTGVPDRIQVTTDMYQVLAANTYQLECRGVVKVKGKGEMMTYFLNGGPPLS
T2 sequence (O43306 whole entry): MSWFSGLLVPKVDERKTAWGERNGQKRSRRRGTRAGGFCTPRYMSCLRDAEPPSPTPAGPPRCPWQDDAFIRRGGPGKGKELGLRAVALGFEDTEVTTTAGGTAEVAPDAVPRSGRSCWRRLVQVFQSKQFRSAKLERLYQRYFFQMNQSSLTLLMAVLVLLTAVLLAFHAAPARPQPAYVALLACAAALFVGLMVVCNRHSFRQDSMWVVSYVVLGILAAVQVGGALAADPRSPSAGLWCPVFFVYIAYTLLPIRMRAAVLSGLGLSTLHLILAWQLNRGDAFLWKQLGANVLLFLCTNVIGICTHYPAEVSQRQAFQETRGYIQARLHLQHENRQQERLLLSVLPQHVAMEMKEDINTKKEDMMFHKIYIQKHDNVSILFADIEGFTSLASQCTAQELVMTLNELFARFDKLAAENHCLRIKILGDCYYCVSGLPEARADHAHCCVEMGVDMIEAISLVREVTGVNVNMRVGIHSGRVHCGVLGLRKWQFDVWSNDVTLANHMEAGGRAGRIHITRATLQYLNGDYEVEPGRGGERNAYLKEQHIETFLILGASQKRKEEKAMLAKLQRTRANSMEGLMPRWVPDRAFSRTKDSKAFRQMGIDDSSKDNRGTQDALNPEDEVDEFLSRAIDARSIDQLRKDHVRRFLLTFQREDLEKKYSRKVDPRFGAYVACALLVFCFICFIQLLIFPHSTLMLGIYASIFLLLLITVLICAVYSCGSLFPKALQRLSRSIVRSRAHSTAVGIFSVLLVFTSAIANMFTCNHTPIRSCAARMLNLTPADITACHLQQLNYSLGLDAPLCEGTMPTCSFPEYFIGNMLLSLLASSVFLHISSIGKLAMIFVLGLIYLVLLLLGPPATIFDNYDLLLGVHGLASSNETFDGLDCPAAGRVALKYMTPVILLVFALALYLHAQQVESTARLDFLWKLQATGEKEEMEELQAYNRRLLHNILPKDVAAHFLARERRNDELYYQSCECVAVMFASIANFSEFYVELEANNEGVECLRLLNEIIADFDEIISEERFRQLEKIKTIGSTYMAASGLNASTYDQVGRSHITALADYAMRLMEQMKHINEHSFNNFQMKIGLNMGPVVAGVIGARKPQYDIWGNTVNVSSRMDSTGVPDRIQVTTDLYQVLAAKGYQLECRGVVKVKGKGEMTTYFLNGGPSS
T3 sequence (Q08462 whole entry): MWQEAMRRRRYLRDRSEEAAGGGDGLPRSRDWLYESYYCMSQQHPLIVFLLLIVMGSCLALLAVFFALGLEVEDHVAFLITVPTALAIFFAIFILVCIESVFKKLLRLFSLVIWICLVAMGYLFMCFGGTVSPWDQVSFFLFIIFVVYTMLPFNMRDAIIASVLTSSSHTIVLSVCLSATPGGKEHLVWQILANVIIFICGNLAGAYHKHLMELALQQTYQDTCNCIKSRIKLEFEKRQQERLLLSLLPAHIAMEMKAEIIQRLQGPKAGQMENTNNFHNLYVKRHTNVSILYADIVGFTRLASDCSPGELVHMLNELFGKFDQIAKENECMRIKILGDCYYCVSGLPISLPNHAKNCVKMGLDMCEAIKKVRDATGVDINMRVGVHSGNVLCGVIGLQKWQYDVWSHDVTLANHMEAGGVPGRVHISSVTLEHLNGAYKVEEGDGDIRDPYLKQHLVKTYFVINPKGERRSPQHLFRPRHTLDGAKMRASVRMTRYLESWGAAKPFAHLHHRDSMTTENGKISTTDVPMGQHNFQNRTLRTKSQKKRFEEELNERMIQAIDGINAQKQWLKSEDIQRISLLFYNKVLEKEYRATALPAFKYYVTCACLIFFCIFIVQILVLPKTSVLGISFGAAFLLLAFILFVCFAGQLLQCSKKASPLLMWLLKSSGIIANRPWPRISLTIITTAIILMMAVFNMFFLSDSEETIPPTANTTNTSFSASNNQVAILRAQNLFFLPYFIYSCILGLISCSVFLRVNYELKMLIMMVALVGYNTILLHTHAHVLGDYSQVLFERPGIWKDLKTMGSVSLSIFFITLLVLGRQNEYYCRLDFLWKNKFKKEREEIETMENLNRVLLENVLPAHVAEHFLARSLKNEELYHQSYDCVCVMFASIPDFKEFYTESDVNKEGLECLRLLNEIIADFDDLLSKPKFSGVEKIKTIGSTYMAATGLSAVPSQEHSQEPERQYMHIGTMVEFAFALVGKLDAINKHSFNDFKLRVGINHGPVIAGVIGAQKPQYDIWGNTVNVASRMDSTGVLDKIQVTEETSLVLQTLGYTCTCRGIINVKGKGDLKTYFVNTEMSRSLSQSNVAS

The IC50 is the concentration that gives 50% inhibition. Read a low IC50 as inhibition by little substance. Regarding `Nc1ncnc2c1ncn2[C@@H]1CC[C@@H](C(=O)NO)C1` [Compound 10, (1R,3R)-3-(6-amino-9H-purin-9-yl)-N-hydroxycyclopentanecarboxamide], the IC50 turned out to be 0.15 µM at type V adenylyl cyclase, 0.25 µM against type VI adenylyl cyclase, 9.63 µM in test [1] and 27 µM in test [2]. Further, in test [3], the “left ventricle (LV) infarct size” value was found to be 20%.

Compound `Nc1nccc2c1ncn2[C@@H]1CC[C@@H](C(=O)O)C1` [Compound 10a, (1R,3R)-3-(4-amino-1H-imidazo[4,5-c]pyridin-1-yl)cyclopentanecarboxylic acid] yielded an IC50 against type V adenylyl cyclase greater than 10 µM.

Consider `Nc1nccc2c1ncn2[C@@H]1CC[C@@H](C(=O)NO)C1` [Compound 10b, (1R,3R)-3-(4-amino-1H-imidazo[4,5-c]pyridin-1-yl)-N-hydroxycyclopentanecarboxamide], for which the half-inhibitory concentration (IC50) against type V adenylyl cyclase is 0.29 µM; in test [1] it was 8.5 µM.

In turn, `Nc1ncnc2c1ccn2[C@@H]1CC[C@@H](C(=O)O)C1` [Compound 10c, (1R,3R)-3-(4-amino-7H-pyrrolo[2,3-d]pyrimidin-7-yl)cyclopentanecarboxylic acid] yielded an IC50 against type V adenylyl cyclase greater than 100 µM.

`Nc1ncnc2c1ccn2[C@@H]1CC[C@@H](C(=O)NO)C1` [Compound 10d, (1R,3R)-3-(4-amino-7H-pyrrolo[2,3-d]pyrimidin-7-yl)-N-hydroxycyclopentanecarboxamide]: the half-inhibitory concentration (IC50) against type V adenylyl cyclase is 0.98 µM.

As for `Nc1nccc2c1ccn2[C@@H]1CC[C@@H](C(=O)O)C1` [Compound 10e, (1R,3R)-3-(4-amino-1H-pyrrolo[3,2-c]pyridin-1-yl)cyclopentanecarboxylic acid], the IC50 at type V adenylyl cyclase was greater than 10 µM.

The compound `Nc1ncnc2c1ncn2[C@@H]1C[C@H](CO)[C@@H](C(=O)O)C1` [Compound 10g, (1S,2S,4R)-4-(6-amino-9H-purin-9-yl)-2-(hydroxymethyl)cyclopentanecarboxylic acid] displayed an IC50 at type V adenylyl cyclase greater than 100 µM.

With `Nc1ncnc2c1ncn2[C@@H]1C[C@H](CO)[C@@H](C(=O)NO)C1` [Compound 10h, (1S,2S,4R)-4-(6-amino-9H-purin-9-yl)-N-hydroxy-2-(hydroxymethyl)cyclopentanecarboxamide], the IC50 on type V adenylyl cyclase was determined as 1.9 µM; in test [1] it was 18 µM.

At type V adenylyl cyclase, `Nc1ncnc2c1ncn2[C@@H]1C[C@@H](CO)[C@@H](C(=O)NO)C1` [Compound 10i, (1S,2R,4R)-4-(6-amino-9H-purin-9-yl)-N-hydroxy-2-(hydroxymethyl)cyclopentanecarboxamide] returned an IC50 of 3.1 µM. That is a single-digit micromolar value.

On to `Nc1nc(F)nc2c1ncn2[C@@H]1CC[C@@H](C(=O)NO)C1` [Compound 10j, (1R,3R)-3-(6-amino-2-fluoro-9H-purin-9-yl)-N-hydroxycyclopentanecarboxamide], for which the IC50 against type V adenylyl cyclase is 0.08 µM; at type VI adenylyl cyclase, 0.21 µM; on type II adenylyl cyclase, 5.58 µM; in test [1], 2.32 µM; in test [2], 2.45 µM.

As to `Cc1nc(N)c2ncn([C@@H]3CC[C@@H](C(=O)NO)C3)c2n1` [Compound 10k, (1R,3R)-3-(6-amino-2-methyl-9H-purin-9-yl)-N-hydroxycyclopentanecarboxamide], the IC50 against type V adenylyl cyclase came to 4.89 µM.

Compound `Nc1nc(C(F)(F)F)nc2c1ncn2[C@@H]1CC[C@@H](C(=O)NO)C1` [Compound 10l, (1R,3R)-3-(6-amino-2-(trifluoromethyl)-9H-purin-9-yl)-N-hydroxycyclopentanecarboxamide] registered an IC50 against type V adenylyl cyclase of 6.45 µM.

`Nc1nc(N)c2ncn([C@@H]3CC[C@@H](C(=O)NO)C3)c2n1` [Compound 10m, (1R,3R)-3-(2,6-diamino-9H-purin-9-yl)-N-hydroxycyclopentanecarboxamide] gave an IC50 against type V adenylyl cyclase of 3.5 µM.

`Nc1nc(O)nc2c1ncn2[C@@H]1CC[C@@H](C(=O)NO)C1` [Compound 10n, (1R,3R)-3-(6-amino-2-hydroxy-9H-purin-9-yl)-N-hydroxycyclopentanecarboxamide] gave a 50% inhibitory concentration (IC50) on type V adenylyl cyclase greater than 300 µM.

As to `Cc1nc2c(N)ncnc2n1[C@@H]1CC[C@@H](C(=O)NO)C1` [Compound 10o, (1R,3R)-3-(6-amino-8-methyl-9H-purin-9-yl)-N-hydroxycyclopentanecarboxamide], the half-maximal inhibitory concentration (IC50) at type V adenylyl cyclase is greater than 300 µM.

As to `Nc1ncnc2c1nc(C(F)(F)F)n2[C@@H]1CC[C@@H](C(=O)NO)C1` [Compound 10p, (1R,3R)-3-(6-amino-8-(trifluoromethyl)-9H-purin-9-yl)-N-hydroxycyclopentanecarboxamide], the concentration for half-maximal inhibition (IC50) on type V adenylyl cyclase was greater than 300 µM.

In turn, `Nc1ncnc2c1nc(N)n2[C@@H]1CC[C@@H](C(=O)NO)C1` [Compound 10q, (1R,3R)-3-(6,8-diamino-9H-purin-9-yl)-N-hydroxycyclopentanecarboxamide] yielded an IC50 at type V adenylyl cyclase greater than 300 µM.

As for `Nc1ncnc2c1nc(O)n2[C@@H]1CC[C@@H](C(=O)NO)C1` [Compound 10r, (1R,3R)-3-(6-amino-8-hydroxy-9H-purin-9-yl)-N-hydroxycyclopentanecarboxamide], the half-maximal inhibitory concentration (IC50) against type V adenylyl cyclase was greater than 300 µM.

Regarding `C[C@H]1C[C@@H](n2cnc3c(N)ncnc32)C[C@@H]1C(=O)NO` [Compound 10s, (1S,2S,4R)-4-(6-amino-9H-purin-9-yl)-N-hydroxy-2-methylcyclopentanecarboxamide], the concentration for half-maximal inhibition (IC50) at type V adenylyl cyclase was 0.51 µM.

The compound `C[C@H]1C[C@@H](n2cnc3c(N)nc(F)nc32)C[C@@H]1C(=O)NO` [Compound 10t] yielded a 50% inhibitory concentration (IC50) against type V adenylyl cyclase of 0.13 µM. This IC50 lies about 3.9-fold lower than the previous one.

For `Nc1ncnc2c1ncn2[C@@H]1O[C@H](CO)[C@@H](O)[C@H]1O` [adenosine, Adenosine, reference compound], the “left ventricle (LV) infarct size” value in test [3] is 38%.

These data come from US10081633B2, “Adenylyl cyclase inhibitors, pharmaceutical compositions and method of use thereof” (priority 2016, dated 2018).
